How the values were obtained:
Integrin alpha-4/beta-1 [1] = molecular target: T1, Integrin alpha-4/beta-1 (Homo sapiens, UniProt P05556+P13612); experiment: Inhibition of human VCAM binding to VLA-4 of Ramos cells in ELISA; format: cell-based
Integrin alpha-4/beta-1 [2] = molecular target: T1, Integrin alpha-4/beta-1; experiment: Inhibition of human VCAM and Ramos cell VLA-4 interaction; format: cell-based

T1 sequence (P05556 whole entry): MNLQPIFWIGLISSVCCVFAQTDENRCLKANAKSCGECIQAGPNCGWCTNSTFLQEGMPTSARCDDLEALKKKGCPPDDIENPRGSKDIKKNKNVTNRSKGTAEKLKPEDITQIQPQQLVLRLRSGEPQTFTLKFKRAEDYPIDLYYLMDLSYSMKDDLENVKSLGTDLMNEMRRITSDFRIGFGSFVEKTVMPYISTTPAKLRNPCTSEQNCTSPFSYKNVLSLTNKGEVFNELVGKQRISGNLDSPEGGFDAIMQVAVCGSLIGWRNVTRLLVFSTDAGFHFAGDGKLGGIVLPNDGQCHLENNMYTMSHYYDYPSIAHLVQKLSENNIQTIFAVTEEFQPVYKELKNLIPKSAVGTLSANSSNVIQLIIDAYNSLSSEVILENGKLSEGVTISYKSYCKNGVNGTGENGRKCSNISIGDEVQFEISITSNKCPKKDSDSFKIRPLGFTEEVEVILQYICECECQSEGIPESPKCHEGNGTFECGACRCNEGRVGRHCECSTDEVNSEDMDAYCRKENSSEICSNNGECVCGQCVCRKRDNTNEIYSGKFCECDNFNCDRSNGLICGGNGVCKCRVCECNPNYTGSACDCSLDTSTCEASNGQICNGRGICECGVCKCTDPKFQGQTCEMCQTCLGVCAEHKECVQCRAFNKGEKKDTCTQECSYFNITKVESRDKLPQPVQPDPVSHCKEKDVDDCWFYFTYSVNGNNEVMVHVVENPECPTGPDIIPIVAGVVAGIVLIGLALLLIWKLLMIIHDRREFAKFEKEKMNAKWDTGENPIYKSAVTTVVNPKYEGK
T1 sequence (P13612 whole entry): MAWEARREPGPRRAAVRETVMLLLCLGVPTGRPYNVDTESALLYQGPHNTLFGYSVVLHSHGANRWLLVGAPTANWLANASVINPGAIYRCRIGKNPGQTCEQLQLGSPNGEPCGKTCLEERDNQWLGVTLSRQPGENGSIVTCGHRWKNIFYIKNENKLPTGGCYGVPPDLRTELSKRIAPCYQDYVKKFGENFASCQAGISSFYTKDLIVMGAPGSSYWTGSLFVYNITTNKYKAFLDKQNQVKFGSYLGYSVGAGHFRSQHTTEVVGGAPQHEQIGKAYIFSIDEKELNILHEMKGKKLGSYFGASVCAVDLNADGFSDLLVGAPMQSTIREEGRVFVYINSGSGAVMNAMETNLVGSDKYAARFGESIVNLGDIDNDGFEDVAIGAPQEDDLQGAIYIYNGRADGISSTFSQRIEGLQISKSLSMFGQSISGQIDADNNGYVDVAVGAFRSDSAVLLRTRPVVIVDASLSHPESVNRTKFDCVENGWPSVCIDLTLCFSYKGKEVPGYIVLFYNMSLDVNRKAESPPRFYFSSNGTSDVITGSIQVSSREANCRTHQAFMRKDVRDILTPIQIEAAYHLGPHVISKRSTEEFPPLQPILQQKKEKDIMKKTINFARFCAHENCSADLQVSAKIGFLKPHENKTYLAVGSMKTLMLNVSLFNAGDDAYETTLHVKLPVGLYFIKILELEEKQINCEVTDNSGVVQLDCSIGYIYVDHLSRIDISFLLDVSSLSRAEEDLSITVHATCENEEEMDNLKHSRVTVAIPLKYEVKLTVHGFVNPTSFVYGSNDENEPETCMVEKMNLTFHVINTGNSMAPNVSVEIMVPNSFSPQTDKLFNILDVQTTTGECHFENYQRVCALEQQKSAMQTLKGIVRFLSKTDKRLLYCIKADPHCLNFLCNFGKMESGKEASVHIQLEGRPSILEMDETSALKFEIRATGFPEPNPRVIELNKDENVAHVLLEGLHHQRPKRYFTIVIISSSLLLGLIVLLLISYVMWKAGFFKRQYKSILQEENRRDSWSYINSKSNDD

| Structure (SMILES) | IC50 (Integrin alpha-4/beta-1 [1]) [nM] | IC50 (Integrin alpha-4/beta-1 [2]) [nM] |
| --- | --- | --- |
| O=C(O)[C@H](Cc1ccc(N2C(=O)CC(c3ccccc3)C2=O)cc1)NC(=O)[C@@H]1CCC(=O)N1Cc1ccccc1 (stereo not given in full) | 1.7 | 92 |
| O=C(O)[C@H](Cc1ccc(N2Cc3ccccc3C2=O)cc1)NC(=O)[C@@H]1CCC(=O)N1Cc1ccccc1 | 2.7 | 500 |
| O=C(O)[C@H](Cc1ccc(N2C(=O)CCC2=O)cc1)NC(=O)[C@@H]1CCC(=O)N1Cc1ccccc1 | 3.2 | 286 |
| O=C(O)[C@H](Cc1ccc(N2C(=O)c3ccccc3C2=O)cc1)NC(=O)[C@@H]1CCC(=O)N1Cc1ccccc1 | 0.52 | 20 |
| O=C(O)[C@H](Cc1ccc(N2C(=O)CC(Cc3ccccc3)C2=O)cc1)NC(=O)[C@@H]1CCC(=O)N1Cc1ccccc1 (stereo not given in full) | 0.94 | 123 |
| O=C(O)[C@H](Cc1ccc(N2C(=O)CCC(c3ccccc3)C2=O)cc1)NC(=O)[C@@H]1CCC(=O)N1Cc1ccccc1 (stereo not given in full) | 0.99 | 184 |
| O=C(O)[C@H](Cc1ccc(N2C(=O)CC3(CCCC3)CC2=O)cc1)NC(=O)[C@@H]1CCC(=O)N1Cc1ccccc1 | 0.54 | 57 |
| O=C(Nc1ccc(C[C@H](NC(=O)[C@@H]2CCC(=O)N2Cc2ccccc2)C(=O)O)cc1)c1c(Cl)cccc1Cl | 0.37 | 12 |
| O=C(O)[C@H](Cc1ccc(N2CCCC2=O)cc1)NC(=O)[C@@H]1CCC(=O)N1Cc1ccccc1 | 16 | – |
| O=C(O)[C@H](Cc1ccc(N2C(=O)Cc3ccccc3C2=O)cc1)NC(=O)[C@@H]1CCC(=O)N1Cc1ccccc1 | 0.98 | 107 |
| CC(C)CC1CC(=O)N(c2ccc(C[C@H](NC(=O)[C@@H]3CCC(=O)N3Cc3ccccc3)C(=O)O)cc2)C1=O (stereo not given in full) | 0.76 | 41 |
| O=C(O)[C@H](Cc1ccc(N2C(=O)CC(c3ccc(O)cc3)C2=O)cc1)NC(=O)[C@@H]1CCC(=O)N1Cc1ccccc1 (stereo not given in full) | 2.6 | 420 |
| O=C(O)[C@H](Cc1ccc(N2C(=O)c3ccncc3C2=O)cc1)NC(=O)[C@@H]1CCC(=O)N1Cc1ccccc1 | 4.3 | 650 |

— ChEMBL document CHEMBL1134041, “Imide and lactam derivatives of N-benzylpyroglutamyl-L-phenylalanine as VCAM/VLA-4 antagonists” (Bioorg Med Chem Lett, 2001)
